Assay results: the NIST ThermoML archive (doi:10.1021/acs.jced.8b00537)
± gives the expanded uncertainty stated by the source.

Test: xn = mol fraction of the nth substance listed
Settings: 100 kPa, Liquid; for viscosity: Capillary tube (Ostwald / Ubbelohde) method; for speed of sound: Frequency=3 MHz, Single path-length method; for mass density: Vibrating tube method

CC[S+](CC)CC.O=S(=O)([N-]S(=O)(=O)C(F)(F)F)C(F)(F)F [triethylsulfonium bis((trifluoromethyl)sulfonyl)imide] + CCCO
Settings | mass density [kg/m3] | speed of sound [m/s] | viscosity [mPa·s]
293.15 K, x1 = 0.04926 | 910 ± 2 | 1205.5 ± 6 | 2.874 ± 0.23
293.15 K, x1 = 0.1003 | 996 ± 2 | 1194.3 ± 6 | 4.059 ± 0.33
293.15 K, x1 = 0.1993 | 1120 ± 2 | 1195 ± 6 | 5.998 ± 0.48
293.15 K, x1 = 0.3008 | 1209 ± 3 | 1203.1 ± 6 | 7.862 ± 0.63
293.15 K, x1 = 0.3991 | 1273 ± 3 | 1212.3 ± 6 | 10.68 ± 0.86
293.15 K, x1 = 0.5023 | 1324 ± 3 | 1222.2 ± 6 | 12.28 ± 0.98
293.15 K, x1 = 0.5987 | 1363 ± 3 | 1228.5 ± 6 | 15.93 ± 1.3
293.15 K, x1 = 0.6987 | 1395 ± 3 | 1235.2 ± 6 | 19.92 ± 1.6
293.15 K, x1 = 0.7947 | 1421 ± 3 | 1240.6 ± 6.1 | 24.95 ± 2
293.15 K, x1 = 0.903 | 1446 ± 3 | 1245.8 ± 6.1 | 31.64 ± 2.5
293.15 K, x1 = 1 | 1465 ± 3 | 1252.9 ± 6.1 | 39.64 ± 3.2
298.15 K, x1 = 0.04926 | 906 ± 2 | 1190.3 ± 6 | 2.515 ± 0.2
298.15 K, x1 = 0.1003 | 992 ± 2 | 1179.9 ± 6 | 3.438 ± 0.28
298.15 K, x1 = 0.1993 | 1115 ± 2 | 1181.8 ± 6 | 5.082 ± 0.41
298.15 K, x1 = 0.3008 | 1204 ± 2 | 1190.5 ± 6 | 6.704 ± 0.54
298.15 K, x1 = 0.3991 | 1268 ± 3 | 1200.2 ± 6 | 9.087 ± 0.73
298.15 K, x1 = 0.5023 | 1319 ± 3 | 1210.3 ± 6 | 10.45 ± 0.84
298.15 K, x1 = 0.5987 | 1358 ± 3 | 1217 ± 6 | 13.49 ± 1.1
298.15 K, x1 = 0.6987 | 1390 ± 3 | 1223.8 ± 6 | 16.79 ± 1.3
298.15 K, x1 = 0.7947 | 1416 ± 3 | 1229.4 ± 6.1 | 20.88 ± 1.7
298.15 K, x1 = 0.903 | 1441 ± 3 | 1234.8 ± 6.1 | 26.25 ± 2.1
298.15 K, x1 = 1 | 1460 ± 3 | 1242.5 ± 6.1 | 32.43 ± 2.6
303.15 K, x1 = 0.04926 | 901 ± 2 | 1174.8 ± 6 | 2.216 ± 0.18
303.15 K, x1 = 0.1003 | 987 ± 2 | 1165.6 ± 6 | 2.978 ± 0.24
303.15 K, x1 = 0.1993 | 1111 ± 2 | 1168.7 ± 6 | 4.379 ± 0.35
303.15 K, x1 = 0.3008 | 1199 ± 2 | 1178.1 ± 6 | 5.78 ± 0.46
303.15 K, x1 = 0.3991 | 1263 ± 3 | 1188.2 ± 6 | 7.814 ± 0.63
303.15 K, x1 = 0.5023 | 1314 ± 3 | 1198.7 ± 6 | 8.985 ± 0.72
303.15 K, x1 = 0.5987 | 1353 ± 3 | 1205.5 ± 6 | 11.56 ± 0.93
303.15 K, x1 = 0.6987 | 1386 ± 3 | 1212.6 ± 6 | 14.33 ± 1.1
303.15 K, x1 = 0.7947 | 1411 ± 3 | 1218.3 ± 6.1 | 17.71 ± 1.4
303.15 K, x1 = 0.903 | 1436 ± 3 | 1223.9 ± 6.1 | 22.1 ± 1.8
303.15 K, x1 = 1 | 1455 ± 3 | 1232.4 ± 6.1 | 26.92 ± 2.2
308.15 K, x1 = 0.04926 | 897 ± 2 | 1159.5 ± 6 | 1.962 ± 0.16
308.15 K, x1 = 0.1003 | 983 ± 2 | 1151.3 ± 6 | 2.609 ± 0.21
308.15 K, x1 = 0.1993 | 1106 ± 2 | 1155.7 ± 6 | 3.816 ± 0.31
308.15 K, x1 = 0.3008 | 1194 ± 2 | 1165.8 ± 6 | 5.034 ± 0.4
308.15 K, x1 = 0.3991 | 1258 ± 3 | 1176.3 ± 6 | 6.787 ± 0.54
308.15 K, x1 = 0.5023 | 1310 ± 3 | 1187.1 ± 6 | 7.806 ± 0.63
308.15 K, x1 = 0.5987 | 1348 ± 3 | 1194.2 ± 6 | 10.01 ± 0.8
308.15 K, x1 = 0.6987 | 1381 ± 3 | 1201.5 ± 6 | 12.35 ± 0.99
308.15 K, x1 = 0.7947 | 1407 ± 3 | 1207.4 ± 6.1 | 15.19 ± 1.2
308.15 K, x1 = 0.903 | 1431 ± 3 | 1213.1 ± 6.1 | 18.81 ± 1.5
308.15 K, x1 = 1 | 1450 ± 3 | 1222.4 ± 6.1 | 22.64 ± 1.8
313.15 K, x1 = 0.04926 | 893 ± 2 | 1144.2 ± 6 | 1.747 ± 0.14
313.15 K, x1 = 0.1003 | 978 ± 2 | 1137.2 ± 6 | 2.304 ± 0.18
313.15 K, x1 = 0.1993 | 1101 ± 2 | 1142.8 ± 6 | 3.354 ± 0.27
313.15 K, x1 = 0.3008 | 1190 ± 2 | 1153.5 ± 6 | 4.421 ± 0.35
313.15 K, x1 = 0.3991 | 1253 ± 3 | 1164.5 ± 6 | 5.945 ± 0.48
313.15 K, x1 = 0.5023 | 1305 ± 3 | 1175.6 ± 6 | 6.842 ± 0.55
313.15 K, x1 = 0.5987 | 1343 ± 3 | 1183 ± 6 | 8.742 ± 0.7
313.15 K, x1 = 0.6987 | 1376 ± 3 | 1190.5 ± 6 | 10.75 ± 0.86
313.15 K, x1 = 0.7947 | 1402 ± 3 | 1196.6 ± 6.1 | 13.15 ± 1.1
313.15 K, x1 = 0.903 | 1426 ± 3 | 1202.5 ± 6.1 | 16.18 ± 1.3
313.15 K, x1 = 1 | 1446 ± 3 | 1212.7 ± 6.1 | 19.24 ± 1.5
318.15 K, x1 = 0.04926 | – | 1129 ± 6 | 1.563 ± 0.12
318.15 K, x1 = 0.1003 | – | 1123.1 ± 6 | 2.049 ± 0.16
318.15 K, x1 = 0.1993 | – | 1129.9 ± 6 | 2.972 ± 0.24
318.15 K, x1 = 0.3008 | – | 1141.3 ± 6 | 3.913 ± 0.31
318.15 K, x1 = 0.3991 | – | 1152.7 ± 6 | 5.25 ± 0.42
318.15 K, x1 = 0.5023 | – | – | 6.044 ± 0.49
318.15 K, x1 = 0.5987 | – | – | 7.698 ± 0.62
318.15 K, x1 = 0.6987 | – | – | 9.441 ± 0.76
318.15 K, x1 = 0.7947 | – | – | 11.49 ± 0.92
318.15 K, x1 = 0.903 | – | – | 14.06 ± 1.1
318.15 K, x1 = 1 | – | – | 16.53 ± 1.3
